The record followed here is paper PMC6429055, “Synthesis, Photochemical and In Vitro Cytotoxic Evaluation of New Iodinated Aminosquaraines as Potential Sensitizers for Photodynamic Therapy” (Molecules, 2019).

Data set [1] is described as follows: Singlet oxygen formation quantum yield (phosphorescence emission at ~1270 nm vs phenazine standard). Type of data set: physicochemical. To be noted: In CHCl3, excitation 337 nm. The method, then: The evaluation of the photosensitizing efficiency of the aminosquaraine dyes was performed in chloroform, by determining the singlet oxygen formation quantum yields (ΦΔ). Phenazine was used as standard. The phosphorescence emission of singlet oxygen generated by the sensitizers at approximately 1270 nm is presented in Figure 2 and the determined quantum yields are summarized in Table 1.
These ΦΔ values were obtained by a simple comparison of the integrated areas determined for the standard and samples, using the same OD at the excitation wavelength. For each determination an average of 100 phosphorescence spectra were used. […] As previously reported, the amino group in the squaric ring enhances singlet oxygen generation efficiency when compared with the unsubstituted zwitterionic dye 3. […] This is related with the intramolecular charge transfer (ICT) mechanism which provides a non-radiative deactivation pathway, therefore decreasing the singlet oxygen formation quantum yields ([44] and references therein).
The singlet oxygen measurement set-up was assembled in our laboratory as previously described. As an excitation source we used a nitrogen laser, excitation wavelength = 337 nm. The detector was an InGaAs CCD (model i-Dus from Andor Technology Limited, Belfast, UK) working at low temperature (−60 °C) coupled to a fixed spectrograph, model Shamrock 163i, also from Andor. Phenazine (standard) was used at O.D. = 0.6 in chloroform. The ΦΔ values were obtained by comparing the total area of the emission spectra for the reference and for each dye under study in the same solvent, with the same optical density at the excitation wavelength. […].

Data set [2] in a line: Fluorescence quantum yield. In kind it is physicochemical. The settings on record: In CHCl3. The text has this: As expected, due to the covalent link between iodine and the aminosquaraine, a strong heavy atom effect can be observed in all cases. This effect is emphasized in the case of the bis(hydroxyethyl)amino substituent group (dye 5c).
Data set [3] is described as follows: SRB cytotoxicity in non-tumor porcine liver primary cell culture, dark and after irradiation. In kind it is cell-based. The settings on record: pig, PLP2 porcine liver primary cell culture (non-tumor), non-tumor cells, mean ± SD. The method, then:
(§1) Stock solutions of the aminosquaraines 5a–e with different concentrations (0.0375 μM, 0.15 μM, 0.6 μM, 6 μM, 12 μM, 25 μM, 50 μM, 500 μM) were prepared using a solution of 3% DMSO in DMEM and kept at−20 °C. Prior to the in vitro assays diluted solutions were prepared with the same solvent to obtain solutions with final concentrations of 0.03 μM, 0.3 μM, 0.6 μM, 1.25 μM, 2.5 μM and 25 μM.
(§2) The cytotoxicity of the squaraine dyes was tested in the dark and under irradiation. For irradiation of the cells a halogen/tungsten lamp (24 V and 250 W, Osram, Carnaxide, Portugal) was used with a fluence rate of […] (measured with an ILT 1400-A radiometer equipped with a SEL033 detector, ILT, Peabody, MA, USA). The cells were irradiated continuously for 30 min. A 3% aqueous solution of K2Cr2O7 was placed between the lamp and the cells as a liquid cut off filter to remove light of wavelength shorter than ~500 nm. The temperature to which the cells were exposed was carefully monitored to guarantee cell viability.
A cell culture was prepared from a freshly harvested porcine liver obtained from a local slaughter house, and it was designed as PLP2. Briefly, the liver tissues were rinsed in Hank’s balanced salt solution containing 100 U/mL penicillin and 100 µg/mL streptomycin and divided into 1×1 mm^3 explants to ensure that all liver cells were able to access the nutrients provided by the medium. Some of these explants were placed in 25 cm^2 tissue flasks in DMEM medium supplemented with 10% fetal bovine serum, 2 mM non-essential amino acids and 100 U/mL penicillin, […] streptomycin and incubated at 37 °C with a humidified atmosphere containing 5% CO2. The medium was changed every two days. Cultivation of the cells was continued with direct monitoring every two or three days using a phase contrast microscope. Before confluence was reached, cells were subcultured and plated in 96-well plates at a density of 1.0 × 10^4 cells/well, and cultivated in DMEM medium with 10% FBS, 100 U/mL penicillin and 100 µg/mL streptomycin [47]. The PLP2 cells were incubated with the squaraine dyes and submitted to the two independent processes—dark and irradiation—as described earlier for the human tumor cell lines. The SRB assay was performed according to the procedure previously described. The results were expressed in GI50 values. All the assays were performed in duplicate. Ellipticine was used as standard.

Data set [4] deals with HeLa, HepG2, MCF-7 and NCI-H460 cell lines. Kind of data set: SRB growth inhibition across the human tumor cell line panel, dark vs irradiation (text summaries). In kind it is cell-based. The settings on record: Homo sapiens, HeLa; dark; inactive within the range of concentrations used; read-out: GI50 in the dark, all cell lines with exception of HeLa. The method, then:
In this representative example, the growth inhibition in the dark was less than 20% in more than 75% of the assays.
as §1, §2
(§3) Four human tumor cell lines were used: MCF-7 (breast adenocarcinoma), NCI-H460 (non-small cell lung carcinoma), HeLa (cervical carcinoma) and HepG2 (hepatocellular carcinoma) from DSMZ (Leibniz-Institut DSMZ-Deutsche Sammlung von Mikroorganismen und Zellkulturen GmbH, Mönchengladbach, Germany). Cells were routinely maintained as adherent cell cultures in RPMI-1640 medium containing 10% heat-inactivated FBS and 2 mM glutamine at […], in a humidified air incubator containing 5% CO2. Each cell line was plated at an appropriate density (7.5 × 10^3 cells/well for MCF-7 and NCI-H460, and 1.0 × 10^4 cells/well for HeLa and HepG2) in 96-well plates, allowed to attach for 24 h and then treated with different concentrations of each squaraine dye. Controls were set with the cells in the absence of the dyes in 3% DMSO in DMEM and in the growth medium only. After the incubation step (24 h), the cells were submitted to the photodynamic treatment for 30 min. Controls in the absence of light were performed on every test. Neither DMSO alone, nor light alone, nor the combination of both induced toxicity on the cells. Then, the growth medium was changed and the cells were incubated for further 24 h. Following this incubation period, the adherent cells were fixed by adding cold 10% TCA (100 µL) and incubated for 60 min at 4 °C. Plates were then washed with deionized water and subsequently dried. SRB solution (0.1% in 1% acetic acid, 100 µL) was then added to each plate well and incubated for 30 min at room temperature. Unbound SRB was removed by washing with 1% acetic acid. Plates were air dried, the bound SRB was solubilized with 10 mM Tris (200 µL) and the absorbance was measured at 540 nm in an ELX800 Microplate Reader (Bio-Tek Instruments Inc., Winooski, VT, USA). The results were expressed in GI50 values, which correspond to the concentration of dye that causes 50% inhibition of cell growth. All the assays were performed in duplicate. Ellipticine was used as standard.

For data set [5], the system named is HepG2 (hepatocellular carcinoma). Briefly: SRB cytotoxicity, dark and after irradiation (photodynamic treatment). To be noted: Homo sapiens, mean ± SD. Type of data set: cell-based. On the procedure: as §1, §2, §3
Data set [6] deals with MCF-7 (breast adenocarcinoma). The data set is described as above. Type of data set: cell-based. The settings on record: Homo sapiens, mean ± SD. On the procedure: as §1, §2, §3
The test system of data set [7] is HeLa (cervical carcinoma). Described as above. Type of data set: cell-based. The settings on record: Homo sapiens, mean ± SD. On the procedure:
as §1, §2, §3

Data set [8] relates to NCI-H460 (non-small cell lung carcinoma). Described as above. In kind it is cell-based. To be noted: Homo sapiens, mean ± SD. The method, then: as §1, §2, §3

The structures appear in SMILES notation.

As for `CCN1C(=CC2=C(NCCO)C(=Cc3sc4cc(I)ccc4[n+]3CC)C2=O)Sc2cc(I)ccc21.[I-]` [Dye 5d, 3-Ethyl-2-{3-(3-ethyl-6-iodo-3H-benzothiazol-2-ylidenemethyl)-2-[(2-hydroxy-ethyl)amino]-4-oxocyclobut-2-enylidenemethyl}-6-iodobenzothiazol-3-ium iodide], the melting point was greater than 300 °C. Further, in data set [1], the “Φ∆ (singlet oxygen generation quantum yield)” value came to 0.19. For the same compound, the “ΦF (fluorescence quantum yield)” value in data set [2] is reported as 0.11. The concentration for 50% growth inhibition (GI50) in data set [3] (Dark) was greater than 25 µM. The same compound returned a GI50 in data set [3] (Irradiated 30 min) of 0.98 ± 0.02 µM. Moreover, the concentration for 50% growth inhibition (GI50) in data set [4] is greater than 25 µM. Moreover, in [5] (HepG2, light or radiation study, 0.5 h, Irradiated 30 min, halogen/tungsten lamp >500 nm), the GI50 worked out at 0.38 ± 0.03 µM. Besides, the concentration for 50% growth inhibition (GI50) in data set [5] (HepG2, Dark) was greater than 25 µM. Moreover, the 50% growth inhibitory concentration (GI50) in [6] (MCF7, light or radiation study, 0.5 h, Irradiated 30 min, halogen/tungsten lamp >500 nm) came out at 0.25 ± 0.04 µM. Also, in data set [6] (MCF7, Dark), the concentration for 50% growth inhibition (GI50) was greater than 25 µM. Besides, the GI50 in data set [7] (Dark) was 1.8 ± 0.1 µM. The 50% growth inhibitory concentration (GI50) in [7] (light or radiation study, 0.5 h, Irradiated 30 min, halogen/tungsten lamp >500 nm) was found to be 0.19 ± 0.01 µM. In addition, the 50% growth inhibitory concentration (GI50) in [8] (NCI-H460, light or radiation study, 0.5 h, Irradiated 30 min, halogen/tungsten lamp >500 nm) was found to be 0.89 ± 0.01 µM. Also, the GI50 in data set [8] (NCI-H460, Dark) is greater than 25 µM.

In general, melting point refers to the temperature of the solid-liquid transition. The term GI50 denotes the concentration that inhibits growth by half.
